{"source": "patent US11583529B2", "about": "“Treatment of inflammatory disorders” (Aldeyra Therapeutics, Inc., priority 2017, dated 2023)", "key": {"[1]": {"system": "rat model of diabetic macular edema (DME)", "experiment": "Rat model of diabetic macular edema (STZ-induced diabetes), intravitreal treatment", "format": "in vivo, male brown Norway rats", "description": "To assess the effect of Compound I-22 in a rat model of diabetic macular edema (DME), Type 1 diabetes was induced in male brown Norway rats by intraperitoneal administration of streptozotocin (STZ; 55 mg/kg). Forty days after STZ administration, animals were assessed for the presence of diabetes by testing blood glucose levels.\nCompound I-22 was supplied as a preformulated sterile solution at 5 mg/mL. The vehicle was 25% hydroxypropyl-β-cyclodextrin solution (333 mOsm/kg) in a sodium phosphate buffer, pH 7.2. Animals with diabetes were assigned to groups of ten, to receive either vehicle (HPβCD) or compound I-22.\nThe study consisted of three groups of male brown Norway rats. Diabetes and diabetic retinopathy were induced in Groups 2 and 3 by intraperitoneal injection of streptozotocin (STZ) on Day 0; Group 1 animals served as non-STZ (non-diabetic) untreated controls. Six and eight weeks after STZ injection, Vehicle (3.5 μL) and Compound I-22 (17.5 μg per eye; 3.5 μL) were administered intravitreally to both eyes of rats in Group 2 and Group 3, respectively. Clinical observations (daily), body weights (weekly), qualitative food consumption, and blood glucose levels (weekly) were assessed. To evaluate retinopathy, electroretinography (ERG) was conducted at Weeks 8, 9 and 10; and optical coherence tomography (OCT) and fundus fluorescein angiography (FFA) were performed pre-dose at Week 6, and at Weeks 8, 9, and 10. Animals were euthanized at 10 weeks post-STZ administration and eyes were collected for histopathological evaluation.\nType 1 diabetes was induced by intraperitoneal administration of 55 mg/kg STZ after an overnight fast. The STZ dosing solution (27.5 mg/mL) was prepared immediately prior to injection by dissolving STZ (Sigma-Aldrich Corp, St. Louis, Mo., Catalog S0130) in a citrate solution (see below) followed by filtration of the STZ solution using a 0.2 μm syringe filter (Pall Life Sciences, Ann Arbor, Mich., Catalog PN4192). The STZ dosing solution was used for injection within approximately 30 minutes after reconstitution.\nElectroretinography (ERG) was performed on Days 55, 62 and 69. After an overnight dark adaption, both eyes were dilated with 1% tropicamide. Animals were anesthetized by isoflurane prior to the procedure. ERG responses to light stimuli (8.0 cd·s/m^2) were recorded by RETevet (LKC Technologies, Inc.). Implicit times and amplitudes of a-waves and b-waves were reported. There was a deviation from the protocol in which ERG was not performed prior to Test Article administration (˜Day 40). The deviation had no impact on the conclusion of the study. Baseline ERG measurements are not required to determine efficacy of the Test Article. A […] ERG assessment was added to the study.\nOptical coherence tomography (OCT) and fundus fluorescein angiography (FFA) were performed on Day 41 (pre-dose) and Days 56, 63 and 70 (post-dose initiation). Both eyes were dilated with 1% tropicamide. Animals were anesthetized (by ketamine/xylazine intramuscular injection) prior to the procedures.\nRetinas of both eyes in each animal were scanned by OCT (Envisu R-Class, Leica/Bioptogen). Thickness of retinal mid-layers, approximately including the outer plexiform layer (OPL), the outer nuclear layer (ONL) and the photoreceptor inner segment (IS), were measured using Bioptigen InVivoVue Reader software. For each eye, four (4) digital calipers were placed randomly on a cross-section image between OPL and IS, away from optic nerve; and measurements were exported to Microsoft Excel files. An average thickness of each retina was calculated from the four (4) measurements, using Microsoft Excel.\nFor FFA, ˜1.5 mL/kg fluorescein (AK-FLUOR® fluorescein injection, USP, 10%, NDC 17478253-10) was injected intraperitoneally to visualize the retinal vasculature. […]"}, "[2]": {"system": "dextran sulfate sodium (DSS)-induced acute ulcerative colitis (UC)", "experiment": "7-Day DSS-induced acute ulcerative colitis model", "format": "in vivo, female Swiss Webster mice", "settings": "vs PO vehicle"}, "[3]": {"settings": "17.5 μg per eye IVT at 6 and 8 weeks after STZ, Week 10, vs vehicle"}, "[4]": {"settings": "17.5 μg per eye IVT, vs vehicle"}, "[5]": {"settings": "200 mg/kg PO BID, Days 0 through 6"}, "[6]": {"settings": "200 mg/kg PO BID, Days −3 through 6"}}, "note": "Entries after “also recorded” stand apart in the source; their conditions may differ.", "data": [{"smiles": "CC(C)(O)c1cc2oc(-c3ccccc3)nc2cc1N", "note": "[Compound I-22]", "values": [{"measurement": "tolerability in the retina", "setting": "[1]; 17.5 μg per eye IVT", "value": "well tolerated"}, {"measurement": "neutrophil infiltration (histopathology score)", "setting": "[1]; [3]", "value": "significant reduction; also recorded: blocked"}, {"measurement": "retinal thickness (histopathology score)", "setting": "[1]; [3]", "value": "reduced retinal thickness; also recorded: statically significant decrease; also recorded: significantly reduced"}, {"measurement": "severities of the retinal lesions (histopathology)", "setting": "[1]; 17.5 μg per eye IVT at 6 and 8 weeks after STZ, ten weeks after STZ, vs vehicle", "value": "significantly diminished; also recorded: statistically significant reductions"}, {"measurement": "retinal inflammation", "setting": "[1]; 17.5 μg per eye IVT, model of DME", "value": "decreased"}, {"measurement": "ERG, OCT, or FFA", "setting": "[1]; [4]", "value": "did not show statistically significant effects"}, {"measurement": "diabetes-induced retinal vascular changes", "setting": "[1]; [4]", "value": "inhibited; also recorded: blocked"}, {"measurement": "body weights, glucose levels, ERG, OCT or FFA", "setting": "[1]; Group 3 vs Vehicle-treated Group 2", "value": "No statistically significant differences"}, {"measurement": "Mean vascular scores", "setting": "[1]; Week 8, control group 3.0, p<0.05", "value": 2.47}, {"measurement": "OCT mean retinal thickness", "setting": "[1]; Week 9, vehicle-treated group 83.3 μm", "value": 82.3, "unit": "μm"}, {"measurement": "Retinal thickness (OCT)", "setting": "[1]; Weeks 9 and 10, vs vehicle", "value": "reduced at Weeks 9 and 10, however it was not statistically significant"}, {"measurement": "decrease in retinal vascularity score", "setting": "[1]; microscopic sections of the retinas, vs vehicle, p<0.05", "value": 36, "unit": "%"}, {"measurement": "ERG changes", "setting": "[1]; relative to the non-diabetic control group", "value": "nor were there any ERG changes"}, {"measurement": "decrease in vascular leakage", "setting": "[1]; vs vehicle-treated group", "value": "did not reach statistical significance"}, {"measurement": "Body weights", "setting": "[2]; 200 mg/kg PO BID (Groups 5, 6, 7, 8, 9, and 10)", "value": "did not differ significantly"}, {"measurement": "Colon lengths, increase in the direction of normal", "setting": "[2]; [5]", "value": 41, "unit": "%"}, {"measurement": "PMN percentages in the proximal colon", "setting": "[2]; [5]", "value": "significantly increased"}, {"measurement": "distal colon edema, reduction", "setting": "[2]; [5]", "value": 78, "unit": "%"}, {"measurement": "distal colon hyperplasia, reduction", "setting": "[2]; [5]", "value": 86, "unit": "%"}, {"measurement": "distal colon mucosal thickness, reduction", "setting": "[2]; [5]", "value": 66, "unit": "%"}, {"measurement": "full colon edema, reduction", "setting": "[2]; [5]", "value": 62, "unit": "%"}, {"measurement": "proximal colon edema, reduction", "setting": "[2]; [5]", "value": 43, "unit": "%"}, {"measurement": "full colon edema, reduction", "setting": "[2]; [6]", "value": 48, "unit": "%"}, {"measurement": "proximal colon edema, reduction", "setting": "[2]; [6]", "value": 60, "unit": "%"}, {"measurement": "proximal colon mucosal thickness, reduction", "setting": "[2]; [6]", "value": 58, "unit": "%"}, {"measurement": "DAI stool consistency scores", "setting": "[2]; Day 2, 200 mg/kg PO BID, Days 0 through 6", "value": "significantly reduced"}]}]}
